Measurements: patent US11260241B2, “Method of treating multiple sclerosis” (Wisconsin Alumni Research Foundation, priority 2010, dated 2022)
Marks after values point to notes of the source that are not given here. Blank lines part the entries; values can stand above or below the compound they belong to.

Key:
Type in all cases: in vivo, C57BL/6 mice
[1] = test system: EAE; assay: EAE model of MS induced with MOG35-55, daily clinical scoring; conditions: for Incidence: from 10 days before immunization, 25 days monitoring; for CDI / Day of Onset / Peak Severity: mean ± SD; for Peak Severity: score scale 0-5
[2] = Body weight monitoring (weight loss and toxicity)
Description: Beginning 10 days prior to immunization, mice were fed a purified 0.87% calcium diet delivering the indicated doses of either 25(OH)D3 or 1,25(OH)2D3. Treatment continued for the duration of the experiment. (A) Average clinical EAE scores were determined daily for vehicle, 25(OH)D3, and 1,25(OH)2D3-treated mice (n=15-17). (B) Mice were weighed weekly (±SD) throughout the study to monitor weight loss and toxicity. (C) Serum calcium levels (±SD) were determined at the end of the experiment using a clinical chemistry analyzer. (D) Serum 25(OH)D3 levels (±SD) were determined at the termination of the experiment. *P<0.05 compared to control group. Vitamin D toxicity is known to cause weight loss and a dramatic rise in serum calcium levels. To assess the effect of UV treatment on these parameters, mice were weighed at selected time intervals throughout the study, and serum calcium levels were determined at the termination of the experiment. […] Furthermore, there were no detected difference in serum calcium levels at either the end of the UVB-pretreatment period (data not shown) or at the termination of the experiment (FIG. 1C). In addition, serum 25(OH)D3 levels were determined both at the end of the UVB-pretreatment period and at the termination of the experiment. […] Corresponding levels of the 5.0 kJ/m^2 group remained elevated at the termination of the experiment.

[3] = Analysis of serum calcium levels; conditions: end of experiment, vehicle 10.1 mg/dl
Description: Blood samples were collected at the termination of the experiments and spun at 6000 rpm (2938 g) for 15 min, followed by a second spin at 14000 rpm (16883 g) for 1 min. Serum calcium levels were determined using the calcium L3K reagent (Genzyme Diagnostics, Charlottetown, PE Canada) and the ABX Pentra 400 clinical chemistry analyzer (Horiba-ABX Diagnostics, Irvine, Calif.).

[4] = Analysis of serum 25(OH)D3 levels (125I-radioimmunological assay); conditions: dietary administration 10, 500, 1000 μg/kg per day; termination of the experiment
Description: Blood samples were collected at selected time points throughout the experiment. Red blood cells were removed through two successive centrifugation steps as described above. Serum 25(OH)D3 levels were determined using a ^125I-radioimmunological assay following the manufacturer's instructions (DiaSorin, Stillwater, Minn.). Samples above the range of the standard curve were diluted prior to analysis. Radioactivity was quantified using a Cobra 5002 gamma scintillation counter (PerkinElmer, Shelton, Conn.).

[5] = 2.5 μg/kg per day in purified diet
[6] = 10 μg/kg per day in purified diet
[7] = 500 μg/kg per day in purified diet
[8] = 1000 μg/kg per day in purified diet

SMILES: C=C1/C(=C\C=C2/CCC[C@]3(C)[C@@H]([C@H](C)CCCC(C)(C)O)CC[C@@H]23)C[C@@H](O)C[C@@H]1O [1,25(OH)2D3, 1α,25-dihydroxyvitamin D3]
Induction of EAE ([1]; 2.5 μg/kg per day): prevented the induction of EAE | Incidence [1, 5]: 35% (6/17)† | CDI [1, 5]: 4 ± 7 | Day of Onset [1, 5]: 20 ± 3 | Peak Severity [1, 5]: 2.3 ± 0.6 | Clinical signs of EAE ([1]; pilot studies, 2.5 μg/kg per day (data not shown)): dramatic suppression | Weight of the mice at the termination of the study ([2]; mouse, in vivo): significant decrease

Serum calcium levels ([3]; 10 μg/kg per day in diet): 9.9 mg/dL | Serum calcium levels ([3]; 500 μg/kg per day in diet): 12.9 mg/dL | Serum calcium levels ([3]; 1000 μg/kg per day in diet): 14.2 mg/dL | Serum 25(OH)D3 levels [4]: dose-dependent increase
SMILES: C=C1CC[C@H](O)C/C1=C/C=C1\CCC[C@]2(C)[C@@H]([C@H](C)CCCC(C)(C)O)CC[C@@H]12 [25(OH)D3, 25-hydroxyvitamin D3]
Effect on incidence, onset, severity, or progression of EAE ([1]; 10 μg/kg per day): no significant effect | Incidence [1, 6]: 88% (15/17) | CDI [1, 6]: 23 ± 16 | Day of Onset [1, 6]: 14 ± 3 | Peak Severity [1, 6]: 2.9 ± 0.9 | Clinical EAE scores ([1]; 500 μg/kg per day): slight suppression | Incidence [1, 7]: 82% (14/17) | CDI [1, 7]: 19 ± 12 | Day of Onset [1, 7]: 16 ± 4 | Peak Severity [1, 7]: 2.7 ± 0.6 | Suppression of EAE ([1]; 1000 μg/kg per day): modest suppression | Incidence [1, 8]: 82% (14/17) | CDI [1, 8]: 17 ± 11 | Day of Onset [1, 8]: 16 ± 3 | Peak Severity [1, 8]: 2.6 ± 0.6 | Weight of the mice at the termination of the study ([2]; 1000 μg/kg per day in diet): significant decrease
